Assay results as given in the supplement of paper PMC10307832.

Key:
Test in all cases: relative viability (nuclei count vs DMSO), 5 days (fraction); higher = more cells survive
BX 795 + Crizotinib = compound: O=C(NCCCNc1nc(Nc2cccc(NC(=O)N3CCCC3)c2)ncc1I)c1cccs1 [BX 795] + C[C@@H](Oc1cc(-c2cnn(C3CCNCC3)c2)cnc1N)c1c(Cl)ccc(F)c1Cl [Crizotinib] (partner 1 µM)
How it was run: (§1)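 Medians of duplicate plates are given as relative viability. That measure is the nuclei count in treated wells divided by the count in vehicle wells. Counts were taken on 4× images of lung cancer cell lines in 1536-well plates, 5 days after pin-tool dosing the day after seeding with one drug alone or a fixed anchor-drug dose plus five library-drug doses (not always all listed) in √10 steps.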

BX 795 + Decitabine = compound: O=C(NCCCNc1nc(Nc2cccc(NC(=O)N3CCCC3)c2)ncc1I)c1cccs1 [BX 795] + Nc1ncn([C@H]2C[C@H](O)[C@@H](CO)O2)c(=O)n1 [Decitabine] (partner 2 µM)
How it was run: as §1

BX 795 + Pictilisib = compound: O=C(NCCCNc1nc(Nc2cccc(NC(=O)N3CCCC3)c2)ncc1I)c1cccs1 [BX 795] + CS(=O)(=O)N1CCN(Cc2cc3nc(-c4cccc5[nH]ncc45)nc(N4CCOCC4)c3s2)CC1 [Pictilisib] (partner 1 µM)
How it was run: as §1

BX 795 + Navitoclax = compound: O=C(NCCCNc1nc(Nc2cccc(NC(=O)N3CCCC3)c2)ncc1I)c1cccs1 [BX 795] + CC1(C)CCC(c2ccc(Cl)cc2)=C(CN2CCN(c3ccc(C(=O)NS(=O)(=O)c4ccc(N[C@H](CCN5CCOCC5)CSc5ccccc5)c(S(=O)(=O)C(F)(F)F)c4)cc3)CC2)C1 [Navitoclax] (partner 0.5 µM)
How it was run: as §1

BX 795 + Bortezomib = compound: O=C(NCCCNc1nc(Nc2cccc(NC(=O)N3CCCC3)c2)ncc1I)c1cccs1 [BX 795] + CC(C)C[C@H](NC(=O)[C@H](Cc1ccccc1)NC(=O)c1cnccn1)B(O)O [Bortezomib] (partner 0.002 µM)
How it was run: as §1

Cell Line	relative viability (BX 795 + Crizotinib; first compound 0.04 µM)	relative viability (BX 795 + Crizotinib; first compound 0.1265 µM)	relative viability (BX 795 + Crizotinib; first compound 0.4 µM)	relative viability (BX 795 + Crizotinib; first compound 1.265 µM)	relative viability (BX 795 + Decitabine; first compound 0.04 µM)	relative viability (BX 795 + Decitabine; first compound 0.1265 µM)	relative viability (BX 795 + Decitabine; first compound 0.4 µM)	relative viability (BX 795 + Decitabine; first compound 1.265 µM)	relative viability (BX 795 + Pictilisib; first compound 0.1265 µM)	relative viability (BX 795 + Pictilisib; first compound 0.4 µM)	relative viability (BX 795 + Pictilisib; first compound 1.265 µM)	relative viability (BX 795 + Navitoclax; first compound 0.1265 µM)	relative viability (BX 795 + Navitoclax; first compound 0.4 µM)	relative viability (BX 795 + Navitoclax; first compound 1.265 µM)	relative viability (BX 795 + Bortezomib; first compound 0.04 µM)	relative viability (BX 795 + Bortezomib; first compound 0.1265 µM)	relative viability (BX 795 + Bortezomib; first compound 0.4 µM)	relative viability (BX 795 + Bortezomib; first compound 1.265 µM)	relative viability (BX 795 + Pictilisib; first compound 0.04 µM)	relative viability (BX 795 + Navitoclax; first compound 0.04 µM)
NCI-H647	1.08	1.17	0.955	0.242	0.383	0.447	0.513	0.37	0.363	0.438	0.343	1.08	1.07	1.01	0.913	1.11	0.801	0.3	–	–
NCI-H2126	1.04	0.984	1.09	0.945	0.626	0.553	0.747	0.593	0.462	0.566	0.448	0.826	0.965	0.787	1.08	1.07	1.21	1.07	0.479	0.795
LOU-NH91	0.768	0.721	0.715	0.796	0.818	0.791	0.803	0.798	0.507	0.541	0.5	0.735	0.594	0.686	0.528	0.498	0.562	0.507	0.509	0.686
NCI-H1755	0.935	0.908	0.767	0.516	0.796	0.645	0.885	0.704	0.418	0.35	0.305	0.978	1.04	0.671	1.01	0.963	1.05	0.758	0.442	1.07
NCI-H1651	0.945	0.948	0.852	0.853	0.801	0.624	0.6	0.645	0.617	0.615	0.645	1.13	1.04	0.932	0.925	0.961	1.04	0.971	0.569	1
NCI-H460	0.859	1.17	0.684	0.192	0.497	0.584	0.446	0.403	0.418	0.374	0.261	1.25	1.16	0.973	1.1	1.27	1.08	1.09	0.361	1.1
NCI-H2087	0.745	0.963	0.868	0.516	0.387	0.347	0.369	0.143	1.02	1.03	0.756	1	1.25	0.801	0.952	0.898	1.18	0.719	0.999	0.901
NCI-H838	0.781	0.689	0.628	0.356	0.568	0.487	0.512	0.322	0.425	0.382	0.326	1.1	1.02	0.519	0.841	0.792	0.719	0.401	0.449	1.05
NCI-H23	0.459	0.503	0.374	0.257	0.298	0.234	0.346	0.315	0.504	0.41	0.391	0.916	0.672	0.355	1.05	1.31	0.987	1.26	0.515	0.983
NCI-H1915	0.904	0.95	0.85	0.765	0.292	0.225	0.309	0.245	0.831	0.954	0.798	0.782	0.766	0.691	1.07	1.01	0.974	0.953	0.98	0.824
HOP-62	1.04	0.953	1.13	0.941	0.241	0.223	0.295	0.296	0.586	0.682	0.66	1.24	1.21	1.07	0.51	0.59	0.615	0.682	0.803	1.09
PC-14	0.879	0.919	0.851	0.602	0.226	0.211	0.17	0.178	0.758	0.564	0.439	0.988	1.08	0.795	0.866	0.978	0.875	0.582	0.654	0.976
EMC-BAC-2	0.724	0.733	0.631	0.525	1.02	1.03	0.962	0.736	0.488	0.479	0.415	1.24	1.24	0.906	1.08	1.08	1.13	1.06	0.533	1.18
NCI-H596	1.08	1.02	1.03	0.874	1.05	0.982	1.1	1.08	0.38	0.417	0.431	1.05	1.16	0.945	0.947	0.875	0.999	1.08	0.449	1.04
